# Patent publication US11291705B2, “Use of caspase-3 inhibitors and caspase-3 activators in the manufacture of medicament for treating cancer and wound healing” (Technion Research & Development Foundation Limited, priority 2016, dated 2022)
# What was measured:
# human melanoma cells = experiment: GFP-infected human melanoma cells injected into recipient mice; settings: mouse, in vivo
# Experimental: FIG. 15A—Melanoma cell were injected into recipient mice. […] Representative image 6 days after first treatment. FIG. 15B—quantification of tumor development indicates inhibition of tumor size in response to caspase-3 inhibition. FIG. 15C—Extracted tumors were analyzed for proliferation using the Ki67 marker and the presence of GFP^+ melanoma cells. FIG. 15D—Tumors treated with the caspase-3 activator ABT-199 result in a dramatic increase in tumor mass. […] Scale bars, 20 μm.
# Examination of the effect of caspase-3 inhibition on melanoma formation in vivo—For this aim human melanoma cells were stably infected with GFP. Cells were then injected into to recipient mice and the effect of administrating caspase-3 inhibitors was monitored.
# sebaceous gland (SG) = experiment: Sebaceous gland (SG) size and cell proliferation in mice injected subcutaneously with caspase-3 inhibitors or activators; format: in vivo; settings: eight week old mice, subcutaneous injection for 7 days
# Experimental: Immunofluorescence—Skins were embedded in OCT, frozen, sectioned, and fixed in 4% paraformaldehyde. Tail samples were treated with 5 mM EDTA for 4 hours at 37° C. to separate skin epithelium from dermis and fixed in formal saline for 2 hours at room temperature. Dorsal samples were treated with 5 mM EDTA for 6 hours at 37° C. to separate skin epithelium from dermis and fixed in formal saline for 1 hour at room temperature. Samples were blocked for 2 hours in Blocking buffer consisting of 10% Goat serum, 2% BSA, 0.2% Triton-X. Primary antibodies were diluted in blocking buffer and tissue/sections were incubated overnight at 4° C. Whole mounts or sections were washed at least 3 times with PBS. Secondary antibodies were incubated for 1 hour at room temperature followed by 4 washes with PBS. The following primary antibodies were used: YAP (Rabbit, 1:100, Cell Signalling, Mouse 1:100 Santa Cruz), pYAP (Rabbit, 1:100 Cell Signalling), α-E-Catenin (Rabbit, 1:100, Cell Signalling), Ki67 (Rabbit, 1:100, Abcam; Rat, 1:100, eBioscience), CD34 (Rat, 1:100, eBioscience), K15 (Mouse, 1:100, Thermo, Chicken, 1:1000, Abcam), Sox9 (Rabbit, 1:100, Millipore, Goat, 1:50, Santa Cruz). Cleaved-Caspase-3 (Rabbit, 1:100, Cell signalling), Phalloidin (1:250, Life Technologies). TUNEL was performed using ApopTag TdT (Millipore). […] Analysis was performed on Zeiss LSM 880 confocal microscope.
# [1] = test system: integrin α6+CD34−EGFPhigh SGPZ cells; experiment: Proliferation and expansion of isolated SGPZ cells treated with caspase-3 inhibitors; format: cell-based, mice; settings: z-DEVD-fmk added initially
# Experimental: Flow Cytometry—SGPZ cell isolation and FACS analysis were performed with K15-EGFP mice and CD34, integrin α6 and Sca1 antibodies. K15-GFP^high cells were isolated from ears and dorsal skin of 8-week old B6.Cg-Tg(Krt1-15-EGFP)2Cot/J mice.
# YAP target genes = experiment: RT-PCR of YAP dependent target genes in treated HaCaT cells; format: cell-based; settings: relative to DMSO treated cells
# Experimental: RNA extraction, reverse transcription and real-time PCR (RT-PCR)—RNA was isolated using Trizol (Sigma) and up to 2 μg of RNA were subjected to cDNA synthesis (Applied Biosystems). Real time PCR was carried out using the PerfeCTa SYBR Green FastMix (Quanta), with gene-specific primers [RpLp0 [sequence] […] Amplicon levels were analysed in triplicate and quantitated relative to a standard curve comprising cDNA, and values normalized to levels of the housekeeping gene (Rplp0 or Gapdh). Reactions were: 3 minutes at 95° C., then 40 cycles of 10 seconds at 95° C. and 30 seconds at 60° C. with addition of melt curve step: 10 seconds at 95° C., and increments of 0.5° C. every 5 seconds between 65° C. to 95° C.
# α-Catenin = α-Catenin levels in low confluent HaCaT cells; format: cell-based
# Experimental: (§1) Cell culture—The HaCaT and HEK293 cell lines were cultured in DMEM medium supplemented with 10% FBS, 1% P/S (Pen/Strep) and 1% L-glutamine. Integrin α6^+CD34^+ HFSCs and integrin α6^+CD34^−EGFP^high SGPZ cells were isolated and cultured in HFSC media on sustaining J2 feeder cells. Serum was chelated for a calcium concentration of 50 μM. […] Cells were fixed in 4% PFA for 10 minutes for immunofluorescence analysis or harvested for protein or RNA extraction.
# TUNEL was performed using ApopTag TdT (Millipore). […] Analysis was performed on Zeiss LSM 880 confocal microscope.
# The levels of α-Catenin are known to be a critical factor in the regulation of YAP (27). In low confluent cells, diminished levels of α-Catenin serve as a mechanotransduction mechanism that instructs the nuclear translocation of YAP and drives proliferation (27, 33). […] The present inventors therefore examined the levels of α-Catenin both in vitro and in vivo, by employing both Western blot analysis and immunofluorescence.
# YAP [2] = experiment: YAP nuclear translocation and pYAP levels in EGFPhigh SGPZ cells; format: cell-based, mice; settings: immunoblot
# Experimental: as §1
# Given that Caspase-3 inhibition hindered cell number and proliferation in vitro the present inventors next examined whether this was mediated via YAP in EGFP^high SGPZ cells using K15^+ SGPZ cells. […] Similar findings as to effect of caspase-3 inhibition on YAP activation and proliferation were also obtained in HaCaT and Hek293E3 cells (FIGS. 3J-K, FIGS. 11B-F).
# [3] = test system: 624-38 melanoma cell line; experiment: Proliferation of melanoma cell line 624-38; format: cell-based
# Text: (§2) FIGS. 14A-C depict inhibition of Caspase-3 attenuates proliferation of melanoma cells. […] FIG. 14C—Immunofluorescence of decreased Ki67^+ cells (green) after 4 days of Caspase-3 inhibition. Scale bars, 20 μm (FIG. 14C right panels), 100 μm (FIG. 14A, FIG. 14B panels).
# (§3) In order to examine this hypothesis, the present inventors first investigated the effect of caspase-3 inhibition on the proliferation rate of melanoma cells. […] Similar results were also obtained when examining 4 additional cell types (HaCaT keratinocytes, Hek293E3, K15 SG progenitors and hair follicle stem cells) (FIGS. 10A-F).
# [4] = test system: excision wounds (1 cm^2) on dorsal skin; experiment: Wound repair of full thickness excision wounds on dorsal skin; format: in vivo, mice
# Text: For all wound repair experiments, mice were sedated with isofluorane. Mice were shaved with electric clippers and treated topically with a hair removal cream for a few minutes (Nair). Full-thickness excision wounds (1 cm^2) were generated on the dorsal skins and monitored for wound coverage. PWI, mice were individually housed. At the desired time PWI, mice were euthanized with CO2 and the wounded skins were harvested and either embedded in OCT or prepared for whole mounts as described above or for protein extraction.
# Inhibition of caspase-3 impairs wound repair—Since YAP is known to play a chief role in regeneration (34), the present inventors investigated whether in vivo inhibition of Caspase-3 affects the wound repair dynamic by modulating YAP activity. […] Full thickness excision wounds (1.0 cm^2) were generated on the dorsalbacks and monitored for wound coverage. In control mice, three days post wound infliction (PWI) the wound size was reduced by 60% while in Ivachtin and z-DEVD-fink (SEQ ID NO: 71) treated mice, it was reduced by only 10% and 20%, respectively (FIG. 5A and FIG. 5B).
# 501A melanoma cell line = experiment: Proliferation of melanoma cell line 501A; format: cell-based
# Text: as §2, §3
# B16F10 melanoma cells = B16F10 melanoma cells in vitro: growth, Ki67, pYAP, α-Catenin; format: cell-based
# Text: FIG. 23D—A histogram depicting quantifications of 501-A total cells number after treatment with Z-DEVD-fink (SEQ ID NO: 71). FIG. 23E—Images depicting B16F10 melanoma cells stained for Ki67 (red), active cleaved Caspase-3 (green) and nuclear counterstain DAPI (blue). […] Insets are zoom in on specific cells, Denotation: CP3, Caspase-3. Scale bars: 100 μm. ** (P<0.01), *** (P<0.001).
# FIG. 24A—Images depicting B16F10 melanoma cells stained for pYAP (red). […] FIG. 24D—Images depicting B16F10 melanoma cells stained for α-Catenin (green). […] FIG. 24E—Immunoblot analysis of proteins isolated from B16F10 melanoma cells using antibodies against pYAP, α-Catenin and α-Tubulin as control.
# [5] = test system: integrin α6+CD34+ HFSCs, HaCaT keratinocytes and Hek293E3 cells; experiment: Expansion of other cell types treated with caspase-3 inhibitors; format: cell-based; settings: one treatment
# Text: In order to examine whether Caspase-3 affects the expansion of other cell types the present inventors isolated integrin α6^+CD34^+ HFSCs from second telogen mice.
# YAP [6] = experiment: YAP localization and pYAP levels in HEK293 cells; format: cell-based
# Experimental: as §1
substance,measurement,setting,value
z-DEVD-fmk,"effect on tumor development, one inhibitor compared with the other",human melanoma cells,stronger effect
same,SG size,sebaceous gland (SG),decrease in SG size
same,cell number,[1],dramatically inhibited
same,number of formed colonies,[1],dramatically inhibited
same,"ErbB4 expression, downregulation",YAP target genes,6 fold
same,"HOXA5 expression, decrease",YAP target genes,2 fold
same,"HOXC13 expression, decrease",YAP target genes,5 fold
same,"WTIP expression, downregulation",YAP target genes,2 fold
same,levels of α-Catenin,α-Catenin,increased levels
same,levels of pYAP,YAP [2],increased pYAP levels
same,cell proliferation and number,[3],dramatic decrease
same,de novo HF regeneration from the wound bed,[4]; 20 and 30 days PWI,inhibited
same,wound closure,[4]; FIGS. 19A-F,significant decrease
same,cells positive for nuclear YAP in the wound border,"[4]; mouse, in vivo",Decreased nuclear YAP
same,wound size reduced by,"[4]; three days post wound infliction, injected from 2 days prior to wounding",20%
same,cell proliferation and number,501A melanoma cell line,dramatic decrease
same,proliferative (Ki67) cells,B16F10 melanoma cells,reduced levels of proliferative cells
same,phosphorylated YAP-positive cells (pYAP+),B16F10 melanoma cells; compared to DMSO,significant increases
same,growth of B16F10 melanoma cells,B16F10 melanoma cells; continuous presence of inhibitor,hindered
same,expansion of cells,[5],impaired the expansion
same,nuclear YAP localization,YAP [6],Decreased nuclear YAP localization
same,pYAP levels,YAP [6]; Western blot,increased pYAP levels
